# Experimental data from patent publication US9107919B2, “Pharmaceutical compositions comprising imidazoquinolin(amines) and derivatives thereof suitable for local administration” (priority 2009, dated 2015).
# Columns and labels:
# [1] = Pharmacokinetics of intravesical imiquimod in pigs (plasma, urine); type: in vivo, pig; conditions: female, Dutch Landrace, other: intravesical instillation, 50 mL of imiquimod 0.5% solution
# Protocol: Female pigs (Dutch Landrace) were used for this study. […] The pigs were divided into four groups of six animals. Experimental procedures were performed under general anesthesia. Premedication contained a mixture of 10 mg/kg ketamine and 0.5 to 1.0 mg/kg midazolam i.m. in one shot. Sedation maintenance was done by the same mixture in half the dosage every 45 minutes. The bladder was emptied without suction trauma prior to the start of treatment (via 12 French Foley catheter) and 50 mL of the study drug was instilled intravesically. […] The catheter was clamped and the instillation fluid was retained in the bladder for 60 minutes, after which the bladder was emptied. The bladder was not rinsed after emptying.
# Blood samples for pharmacokinetic analysis and cytokine measurement were collected in 4 mL lithium heparin tubes with gel divider before instillation of the study drug and 15, 30, 60, 120, 240 and 480 minutes after the beginning of drug instillation and also just before cystectomy. The samples were transferred on ice to the laboratory for plasma processing within 30 minutes. […]
# The post-treatment evacuated bladder content and the evacuated urine just before necropsy were collected for analysis of imiquimod concentration. […] Imiquimod concentrations in plasma and urine was determined by CHIMAN s.r.1. […]
# [2] = Solubility of imiquimod in glycerol or propylene glycol; type: physicochemical; conditions: for imiquimod concentration in solution: 120° C. 24 h, then water added
# Protocol: Imiquimod was weighed (100 mg) and added of glycerol or propylene glycol to a volume of 10 ml. After shaking (at 120° C. for 24 hours) and cooling, 10 ml of water were added: the dispersions were filtered and the imiquimod amount in the liquid phases was determined. […] When propylene glycol was used the pH was 3.03 and the concentration of imiquimod in solution was 0.02%.
# [3] = Imiquimod solubility in glacial acetic acid and buffers (HPLC/UV); type: physicochemical
# Protocol: The solubility was experimentally determined weighing 1200 mg of drug, adding 10 ml of glacial acetic acid and gently shaking the dispersion for 24 hours. This sample, after filtration (0.22 μm Millipore membrane filter) was analyzed by HPLC for the imiquimod content and its pH was measured.
# Imiquimod (738 mg) was initially dissolved in glacial acetic acid (10 ml). A volume of this solution was appropriately diluted with phosphate buffer pH 7.0 (0.1 M), citrate buffer pH 6.0 (0.1 M) or acetate buffer pH 5.0 (0.1 M) to prepare systems containing 2.0% of drug. The samples, after filtration by 0.22 μm Millipore membrane filter, were spectrophotometrically and chromatographically analyzed for the imiquimod content. The pH was determined.
# [4] = cited from earlier work
# [5] = Toxicity of intravesical imiquimod in pigs (well-being, blood, bladder histology); type: in vivo, pig
# Protocol: Animal procedures were performed according to the protocol approved by the Institutional Animal Care and Use Committee (IACUC, Radboud University Nijmegen Medicai Centre, The Netherlands) and in compliance with national and European regulations. Female pigs (Dutch Landrace) were used for this study. The urogenital tract of the pig closely resembles the human urogenital system, and the shape of the penis and the preputial diverticulum prevent transurethral catheterization of a male pig. The sows were housed in special swine stainless steel battery cages and fed with universal swine food. The pigs were divided into four groups of six animals. Experimental procedures were performed under general anesthesia. […]
# Body temperature was measured rectally before and 1, 8 and 24 hours and one week after starting treatment. The well being of the animals was monitored by experienced staff by a selected protocollary list of possible signs and symptoms of toxicity before the experiment, just after the instillation and just before cystectomy.
# 24 hours after treatment three animals per group were sacrificed and cystectomised and 7 days after treatment the remaining animals underwent the same procedure. […] Material was embedded in paraffin, sectioned, and stained with H&E. The slides were evaluated for signs of inflammation and allergic reaction in submucosa and mucosa. […]
# [6] = Imiquimod diffusion/release, Franz cell with cellulose acetate membrane; type: physicochemical; conditions: 0.1 M lactic acid solution, 37° C., first hour
# Protocol: The imiquimod diffusion/release experiments have been performed with Franz cells with an effective diffusion area of 1.76 cm^2 and a receiving compartment volume of 14 ml: the donor compartment contained about 2 g of gel formulation, while the receiving one was filled with 0.1 M lactic acid solution (pH=3.5). Between the two compartments, a cellulose acetate membrane (MWCO=23000) was interposed. The experiments were carried out at 37° C. using a re-circulating bath and the fluid in the receptor chamber was stirred continuously at 300 rpm.
# At prefixed time intervals, the receiving phase was completely withdrawn and substituted by fresh acid solution. The receiving solution was submitted to UV analysis for imiquimod.
# [7] = Preliminary solubility tests of imiquimod (visual inspection); type: physicochemical
# Protocol: 48 mg of imiquimod was weighed and added of hydrochloric acid solutions at different concentrations: in particular 48.2 mg imiquimod were treated with 8 ml hydrochloric acid 0.1 N, 48.6 mg imiquimod with 9 ml hydrochloric acid 0.2 N and 48.4 mg imiquimod with 8 ml hydrochloric acid 2 N. After vortexing for 5 minutes, the samples were visually inspected.
# A weighed amount of drug (48.2 mg) was dissolved under agitation in 2 ml glacial acetic acid. After complete solubilisation a weighed aliquot of imiquimod (150 mg) was added to this solution in order to visually evaluate the maximum concentration of dissolved drug.
# The solubility of imiquimod at different pH values was determined. Two different procedures were used. The drug was dispersed in the buffer (without acetic acid as co-solvent). 72 mg imiquimod were dispersed with 10 ml citrate buffer, 155 mg imiquimod in 10 ml phosphate buffer and 192 mg in 10 ml acetate buffer. After vortexing for 5 minutes, each sample was visually inspected.
# A visual inspection of the systems was carried out.
# [8] = Solubility of imiquimod in short-chain acids, cyclodextrin and surfactants (spectrophotometry); type: physicochemical
# Protocol: Some inorganic and organic acids were considered as potential solubilizers of the drug. 100 mg imiquimod were dissolved in 10 ml of phosphoric acid 0.1 M, succinic acid 0.1 M, citric acid 0.1 M, acetic acid 0.01 M, 0.05 M, 0.1 M and lactic acid 0.01 M, 0.05 M, 0.088 M, and 0.1 M. These systems, after filtration, were spectrophotometrically analyzed for imiquimod and their pH was measured.
# Exactly weighed amounts of imiquimod (200 mg) and hydroxypropyl-β-cyclodextrin (HP-β-CD) (4000 mg) were dissolved in 10 ml of: • water • water at pH 5.0 (corrected with HCl) • water at pH 3.0 (corrected with HCl) • lactic acid solution (0.1 M)
# After shaking for 24 hours and filtration (0.22 μm Millipore membrane filter) the solubilised imiquimod was spectrophotometrically determined. The solution pH was also measured.
# Imiquimod (200 mg) was weighed and mixed with different amounts of surfactants (Tween 20, Tween 80, Cremophor EL or Pluronic F-68) in order to prepare formulations containing 0.5, 2.5 and 5% of surface active agent. Each mixture was added to 10 ml of lactic acid (0.1 M), gently shaken for 24 hours, filtered and analyzed by spectrophotometry and submitted to pH measurement.
# The imiquimod present in solution in compositions prepared with different acids and surfactants is spectrophotometrically determined and is shown in Table 5 together with the pH value.
# [9] = Imiquimod solubility in different solvent systems; type: physicochemical
# Protocol: The dispersions have been centrifuged at 10,000 rpm for 10 minutes and the liquid phases collected and stored at room temperature until analysed. The imiquimod concentration in these solutions was spectrophotometrically (λ=319 nm) determined after appropriated dilution.
# [10] = 27% glacial acetic acid/73% acetate buffer pH 5.0 (0.1 M), system with 2.0% drug
# [11] = 27% glacial acetic acid/73% citrate buffer pH 6.0 (0.1 M), system with 2.0% drug
# [12] = 27% glacial acetic acid/73% phosphate buffer pH 7.0 (0.1 M), system with 2.0% drug
# [13] = dissolved in glacial acetic acid, then diluted with buffers
# [14] = HP-β-CD 40.0% (water at pH 3.0 corrected with HCl)
# [15] = HP-β-CD 40.0% (water at pH 5.0 corrected with HCl)
# [16] = lactic acid 0.100 M + Cremophor EL 0.5%
# [17] = lactic acid 0.100 M + Cremophor EL 2.5%
# [18] = lactic acid 0.100 M + Cremophor EL 5.0%
# [19] = lactic acid 0.100 M + HP-β-CD 40.0%
# [20] = lactic acid 0.100 M + Pluronic F68 0.5%
# [21] = lactic acid 0.100 M + Pluronic F68 2.5%
# [22] = lactic acid 0.100 M + Pluronic F68 5.0%
# [23] = lactic acid 0.100 M + Tween 20 0.5%
# [24] = lactic acid 0.100 M + Tween 20 2.5%
# [25] = lactic acid 0.100 M + Tween 20 5.0%
# [26] = lactic acid 0.100 M + Tween 80 0.5%
# [27] = lactic acid 0.100 M + Tween 80 2.5%
# [28] = lactic acid 0.100 M + Tween 80 5.0%
smiles,measurement,setting,value
"CC(C)Cn1cnc2c(N)nc3ccccc3c21 [imiquimod, 1-isobutyl-1H-imidazo[4,5-c]quinolin-4-amine]",concentration at 24 h,"[1]; pig, urine, after 24 hours, all imiquimod groups, read-out: imiquimod levels in urine",< 5000 ng/mL
same,concentration at 8 h,"[1]; plasma, after eight hours, any pig",< 2.1 ng/mL
same,pH,[2]; glycerol system,5.42
same,imiquimod concentration in solution,[2]; glycerol,0.02%
same,pH,[2]; propylene glycol system,3.03
same,imiquimod concentration in solution,[2]; propylene glycol,0.02%
same,solubility in pure acetic and lactic acid,[3],> 7.5 % w/v
same,pH,[3]; 27% glacial acetic acid/73% acetate buffer pH 5.0,2.92
same,"Imiquimod solubility, HPLC",[3]; [10],1.89 % w/v
same,"Imiquimod solubility, UV",[3]; [10],1.92 % w/v
same,pH,[3]; 27% glacial acetic acid/73% citrate buffer pH 6.0,3.20
same,"Imiquimod solubility, HPLC",[3]; [11],0.86 % w/v
same,"Imiquimod solubility, UV",[3]; [11],0.72 % w/v
same,pH,[3]; 27% glacial acetic acid/73% phosphate buffer pH 7.0,2.92
same,"Imiquimod solubility, HPLC",[3]; [12],1.69 % w/v
same,"Imiquimod solubility, UV",[3]; [12],1.55 % w/v
same,"Imiquimod solubility, HPLC","[3]; 100% glacial acetic acid, 24 h shaking",7.50 % w/v
same,pKa,[4],about 4
same,tolerability of intravesical administration,[5],"well tolerated, causes no bladder wall toxicity"
same,flux of imiquimod through the artificial barrier,[6],1.95e-06 g·cm^−2·s^−1
same,solubility in buffers (visual),"[7]; citrate, phosphate, acetate buffer, without acetic acid",slightly soluble
same,appearance after dilution,[7]; [13],"clear, transparent solutions"
same,pH of the systems,[7]; [13],lower than 3.6
same,solubility,"[7]; glacial (100%) acetic acid, organic solvent or mixture, thermodynamic from solid, room temperature",100 mg/mL
same,solubility (visual),"[7]; hydrochloric acid 0.1 N, 0.2 N and 2 N",slightly soluble
same,solubility in glacial (100%) acetic acid,"[7]; room temperature, visual",10 % (w/v)
same,imiquimod in solution,[8]; [14],0.655 % w/v
same,pH,[8]; [14],3.05
same,imiquimod in solution,[8]; [15],0.143 % w/v
same,pH,[8]; [15],5.17
same,imiquimod in solution,"[8]; HP-β-CD 40.0%, no acid (water)",0.004 % w/v
same,pH,"[8]; HP-β-CD 40.0%, no acid (water)",7.09
same,imiquimod in solution,[8]; acetic acid 0.010 M,0.070 % w/v
same,pH,[8]; acetic acid 0.010 M,4.37
same,imiquimod in solution,[8]; acetic acid 0.050 M,0.220 % w/v
same,pH,[8]; acetic acid 0.050 M,4.08
same,imiquimod in solution,[8]; acetic acid 0.100 M,0.430 % w/v
same,pH,[8]; acetic acid 0.100 M,3.97
same,imiquimod in solution,[8]; citric acid 0.100 M,0.010 % w/v
same,pH,[8]; citric acid 0.100 M,2.10
same,imiquimod in solution,[8]; lactic acid 0.010 M,0.130 % w/v
same,pH,[8]; lactic acid 0.010 M,4.20
same,imiquimod in solution,[8]; lactic acid 0.050 M,0.530 % w/v
same,pH,[8]; lactic acid 0.050 M,3.90
same,imiquimod in solution,[8]; lactic acid 0.088 M,0.840 % w/v
same,pH,[8]; lactic acid 0.088 M,3.71
same,imiquimod in solution,[8]; lactic acid 0.100 M,0.980 % w/v
same,pH,[8]; lactic acid 0.100 M,3.61
same,imiquimod in solution,[8]; [16],0.881 % w/v
same,pH,[8]; [16],3.90
same,imiquimod in solution,[8]; [17],0.989 % w/v
same,pH,[8]; [17],3.87
same,imiquimod in solution,[8]; [18],0.969 % w/v
same,pH,[8]; [18],3.88
same,imiquimod in solution,[8]; [19],1.141 % w/v
same,pH,[8]; [19],4.46
same,imiquimod in solution,[8]; [20],1.048 % w/v
same,pH,[8]; [20],3.85
same,imiquimod in solution,[8]; [21],1.088 % w/v
same,pH,[8]; [21],3.87
same,imiquimod in solution,[8]; [22],0.972 % w/v
same,pH,[8]; [22],3.89
same,imiquimod in solution,[8]; [23],0.945 % w/v
same,pH,[8]; [23],3.88
same,imiquimod in solution,[8]; [24],1.004 % w/v
same,pH,[8]; [24],3.86
same,imiquimod in solution,[8]; [25],1.001 % w/v
same,pH,[8]; [25],3.89
same,imiquimod in solution,[8]; [26],0.997 % w/v
same,pH,[8]; [26],3.83
same,imiquimod in solution,[8]; [27],1.009 % w/v
same,pH,[8]; [27],3.82
same,imiquimod in solution,[8]; [28],0.872 % w/v
same,pH,[8]; [28],3.82
same,imiquimod in solution,[8]; phosphoric acid 0.100 M,0.159 % w/v
same,pH,[8]; phosphoric acid 0.100 M,1.80
same,imiquimod in solution,[8]; succinic acid 0.100 M,0.079 % w/v
same,pH,[8]; succinic acid 0.100 M,2.94
same,pH,[9]; 5% CD LA 01,3.90
same,imiquimod solubility,[9]; 5% CD LA 01 (5% HP-β-CD in 0.1 M lactic acid),1.23 % w/w
same,imiquimod solubility,[9]; 5% CD-16% PF127 LA 01,1.15 % w/w
same,pH,[9]; 5% CD-16% PF127 LA 01,4.05
same,pH,[9]; 5% PF127 LA 01,3.92
same,imiquimod solubility,[9]; 5% PF127 LA 01 (5% Poloxamer 407 in 0.1 M lactic acid),1.19 % w/w
same,pH,[9]; 15% CD LA 01,4.03
same,imiquimod solubility,[9]; 15% CD LA 01 (15% HP-β-CD in 0.1 M lactic acid),1.37 % w/w
same,imiquimod solubility,[9]; 15% CD-16% PF127 LA 01,1.22 % w/w
same,pH,[9]; 15% CD-16% PF127 LA 01,4.25
same,imiquimod solubility,[9]; 16% PF127 LA 01,1.10 % w/w
same,pH,[9]; 16% PF127 LA 01,3.99
same,imiquimod solubility,[9]; 20% PF127 LA 01,1.04 % w/w
same,pH,[9]; 20% PF127 LA 01,4.16
same,imiquimod solubility,[9]; DMSO,0.09 % w/w
same,imiquimod solubility,[9]; Glutamic acid 0.072M,0.54 % w/w
same,pH,[9]; Glutamic acid 0.072M,3.95
same,imiquimod solubility,[9]; Glycolic acid 0.1M,0.68 % w/w
same,pH,[9]; Glycolic acid 0.1M,3.82
same,pH,[9]; LA 0.025M,3.93
same,imiquimod solubility,"[9]; LA 0.025M, 25° C., 24 h",0.33 % w/w
same,pH,[9]; LA 0.05M,3.81
same,imiquimod solubility,"[9]; LA 0.05M, 25° C., 24 h",0.58 % w/w
same,pH,[9]; LA 0.1M,3.73
same,imiquimod solubility,"[9]; LA 0.1M, 25° C., 24 h",1.18 % w/w
same,pH,[9]; LA 0.2M,3.52
same,imiquimod solubility,"[9]; LA 0.2M, 25° C., 24 h",2.20 % w/w
same,imiquimod solubility,[9]; N-Methyl-pyrrolidone,0.16 % w/w
same,imiquimod solubility,[9]; PEG 400,0.03 % w/w
same,imiquimod solubility,[9]; Tartaric acid 0.1M,0.01 % w/w
same,pH,[9]; Tartaric acid 0.1M,2.48
